Measured values as given in ChEMBL document CHEMBL5131421, “Cadinane Sesquiterpenoids and Their Glycosides from Alangium chinense That Inhibit Spontaneous Calcium Oscillations” (J Nat Prod, 2022).

What was measured:
[1] = Neuroprotective activity in primary neocortical neuron (unknown origin) assessed as inhibition of 4-AP-induced spontaneous calcium channel oscillation amplitude measured after 15 min by Fluo-4AM dye based fluorescence assay; format: functional, cell-based
[2] = Neuroprotective activity in primary neocortical neuron (unknown origin) assessed as inhibition of 4-AP-induced spontaneous calcium channel oscillation frequency measured after 15 min by Fluo-4AM dye based fluorescence assay; format: functional, cell-based
[3] = Primary neocortical neuron, 0.25 h

Compound	IC50 [1, 3] [µM]	IC50 [2, 3] [µM]	IC50 ([1]; primary neocortical neuron) [µM]	IC50 ([2]; primary neocortical neuron) [µM]
Cc1cc2c(cc1O)C(=O)C(C)(c1ccc(O)c(O)c1)C=C2C(C)C (racemic)	6.1	0.97	–	–
Cc1cc2c(cc1O)[C@@](C)(c1ccc(O)c(O)c1)C(=O)C=C2C(C)C	7.38	3.09	–	–
Cc1cc2c(cc1O)[C@](C)(c1ccc(O)c(O)c1)C(=O)C=C2C(C)C	5.36	2.05	–	–
Cc1cc2c(cc1O)C(=O)[C@@](C)(c1ccc(O)c(O)c1)C=C2C(C)C	5.77	2.58	–	–
Cc1cc2c(cc1O)C(C)(c1ccc(O)c(O)c1)C(=O)C=C2C(C)C (racemic)	5.56	3.45	–	–
Cc1cc2c(cc1O)C(=O)[C@](C)(c1ccc(O)c(O)c1)C=C2C(C)C	8.03	1.91	–	–
NC1=N[C@H](O)[C@H]2[C@H]3O[C@]4(O)O[C@@H]([C@@H](O)[C@@]2(N1)[C@@H]4O)[C@]3(O)CO [TETRODOTOXIN]	–	–	0.00169	0.00493
